The record followed here is patent publication US20150157642A1, “COSMETIC METHOD FOR CHANGING THE APPEARANCE OF EYES” (priority 2011, published 2015).

This experiment relates to eyelids. As to the kind of experiment: topical application to the eyelids, eyelid retraction / eye-widening effect. The note with it: topically applied, alone or in combination. Format: in vivo. From the text: Topical treatments to which the current application is directed include ointments, creams, and solutions that contain one or more of the compounds travoprost, unoprostone, latanoprost, and bimatoprost, alone or in combination, and/or one or more chemically-related compounds and may also include pure forms of various additional types of prostaglandin, synthetic prostaglandin, and synthetic prostaglandin anologues. These ointments and solutions are topically applied to eyelids in order to treat ptosis and/or to improve facial appearance. The ointments and solution may include, in addition to the above-mentioned active ingredients, stabilizers, buffering compounds, salts, carriers, viscosity enhancers, colorants, emollients, emulsifiers, bactericidal and germicidal agents, preservatives, and other ingredients that improve shelf life, application, consistency, and compatibility with topical application, among other things. […] Either pure prostaglandin, synthetic prostaglandin, or synthetic prostaglandin analogues may be rubbed into the eyelid tissues or a relatively concentrated solution of prostaglandin in any of various organic solvents, including ethanol, or ethanol-water mixtures, can be applied to produce the effect. Prostaglandin, synthetic prostaglandin, or synthetic prostaglandin analogs may be additionally included in various eye shadows and other cosmetic products that are routinely applied to eyelids in order to produce the eye-widening cosmetic effect, as well as in many different mixtures, suspensions, solutions, powders, ointments, creams, and other substances.

Regarding `CC(C)OC(=O)CCC/C=C\C[C@@H]1[C@@H](CC[C@@H](O)CCc2ccccc2)[C@H](O)C[C@@H]1O` [latanoprost, isopropyl (Z)-7-[(1R,2R,3R,5S)-3,5-dihydroxy-2-[(3R)3-hydroxy-5-phenylpentyl]-cyclopentyl]hept-5-enoate], the “eyelid retraction (ameliorating ptosis and/or improving facial appearance)” value (“eyelid retraction” below) is given as “cause the eyelids to retract more completely”. For the molecule `CC(C)OC(=O)CCCC=CCC1C(O)CC(O)C1C=CC(O)COc1cccc(C(F)(F)F)c1` (stereo not shown) [travoprost, propan-2-yl 7-[3,5-dihydroxy-2-[3-hydroxy-4-[3-(trifluoromethyl)phenoxy]-but-1-enyl]-cyclopentyl]hept-5-enoate], the “eyelid retraction” value was “cause the eyelids to retract more completely”. As for `CCNC(=O)CCCC=CCC1C(O)CC(O)C1C=CC(O)CCc1ccccc1` (stereo not shown) [bimatoprost, 7-[3,5-dihydroxy-2-(3-hydroxy-5-phenyl-pent-1-enyl)-cyclopentyl]-N-ethyl-hept-5-enamide], the “eyelid retraction” value is “cause the eyelids to retract more completely”. Consider `CCCCCCCC(=O)CC[C@@H]1[C@@H](C/C=C\CCCC(=O)OC(C)C)[C@@H](O)C[C@H]1O` [unoprostone, isopropyl (Z)-7-[(1R,2R,3R,5S)-3,5-dihydroxy-2-(3-oxodecyl)cyclopentyl]hept-5-enoic acid], for which the “eyelid retraction” value is “cause the eyelids to retract more completely”.
